# According to patent US7279161B2, “Factor IX/factor IXa activating antibodies and antibody derivatives” (Baxter Aktiengesellschaft, priority 1999, dated 2007):
# Entries after “also recorded” stand apart in the source; their conditions may differ.
# B1: 193/AD3: anti-FIX/FIXa monoclonal antibody, IgG isotype; scFv SEQ. ID. NOs. 81 and 82 (protein)
# scFv: EVKLVESGPELKKPGETVKISCKASGYIFTNYGMNWVKQAPGKGLKWMGWINTYTGEPTYADDFKGRFAFSLETSASTAYLQINNLKNEDTATYFCALYGNSPKGFAYWGQGTLVTVSAGGGGSGGRASGGGGSDIQMTQSPKFLLVSAGDRVTITCKASQSVSNDVAWYQQKPGQSPKLLMYYASNRYTGVPDRFTGSGYGTDFTFTISTVQAEDLAVYFCQQDYGSPPTFGGGTKLEIKR
# modifications: scFv derived from IgG; Description of Artificial Sequence:scFv from hybridoma cell line 193/AD3
# notes: anti-FIX/FIXa monoclonal antibody, IgG isotype; ID; NOs; 81 and 82
# B2: 198/A1: anti-FIX/FIXa monoclonal IgG, ECACC No. 99090924; scFv SEQ. ID. NOs. 87 and 88 (protein)
# scFv: EVQLQESGGGLVKPGGSLKLSCAASGFIFSSYTMSWVRQTPEKRLEWVATISSGGSSTYYPDSVKGRFTISRDNAKNTLYLQMSSLKSEDTAMYHCTREGGGYYVNWYFDVWGAGTTLTVSSGGGGSGGRASGGGGSDIELTQSPASLAVSLGQRATISCRASESVDSYGKSFMHWYQQKPGQPPKLLIYRASNLESGIPARFSGSGSRTDFTLTINPVEADDVATYYCQQSNEDPLTFGAGTRLEIKR
# modifications: scFv derived from IgG; Description of Artificial Sequence:scFv derived from hybridima cell line 198/A1
# notes: anti-FIX/FIXa monoclonal IgG, ECACC No. 99090924; ID; NOs; 87 and 88
# Tests used:
# human FIXa = target: T1, human FIXa (Homo sapiens, UniProt P00740); assay: Chromogenic FVIII-like (FXa generation) assay with human FIXa added; assay type: biochemical
# T1 construct: with (+) and without (−) addition of 50 ng human FIXaβ; purchased ERL (Enzyme Research Laboratories)
# T1 sequence (P00740 47-191 limits assumed): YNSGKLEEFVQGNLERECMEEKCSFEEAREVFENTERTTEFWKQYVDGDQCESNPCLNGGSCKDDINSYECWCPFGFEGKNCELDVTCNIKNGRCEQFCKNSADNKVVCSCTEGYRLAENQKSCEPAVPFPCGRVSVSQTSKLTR
# T1 sequence (P00740 227-461 limits assumed): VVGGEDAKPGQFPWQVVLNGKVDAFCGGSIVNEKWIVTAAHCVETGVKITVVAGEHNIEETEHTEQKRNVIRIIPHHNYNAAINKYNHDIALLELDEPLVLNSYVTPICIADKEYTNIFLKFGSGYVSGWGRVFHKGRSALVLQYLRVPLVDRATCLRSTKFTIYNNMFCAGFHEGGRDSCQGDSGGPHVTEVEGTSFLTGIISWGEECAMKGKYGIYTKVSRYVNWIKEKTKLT
# Method: The chromogenic activity of these antibody preparations was measured in the following FXa generation kinetic assay: 10 μg of monoclonal antibody (in 25 μl) were transferred to microtiter plate wells and warmed to 37° C. Chromogenic substrate (S-2222), synthetic thrombin inhibitor (I-2581), factor IXa and FX were reconstituted in sterile water and FIXa/FX (both bovine) were mixed with phospholipids according to the supplier's protocol. Per reaction, 50 μl of the phospholipid/FIXa/FX solution were combined with 25 μl CaCl2 (25 mM) and 50 μl of the substrate/inhibitor cocktail. To start the reaction, 125 μl of the premix were added to the monoclonal antibody solution in the microtiter plates and incubated at 37° C. Absorbance at 405 nm and 490 nm of the samples was read at various times (5 min to 2 h) against a reagent blank ([…] TBS instead of monoclonal antibodies) in a Labsystems iEMS Reader MF™ microtiter plate reader using GENESIS™ software. In parallel, the same reactions were performed except that 50 ng human FIXa were added per reaction.
# To analyze the FVIII-like (FIXa activating) activity of the peptides, an assay system based on a commercial available FVIII assay was developed (see examples 2 and 4). The basic principle is, that without a cofactor, FIXa will have very limited activity towards its natural substrate FX. […] The amount of FXa generated is monitored by cleavage of a chromogenic substrate. The principle of the revised chromogenic assay is described for two representative peptides: A1/3 and A1/5 (Table 2). Briefly, 25 μl aliquots of peptide stock solution (in imidazole buffer (IZ) 50 mM imidazole, 100 mM NaCl, pH 7.2) were transferred to microtiter plate wells and warmed to 37° C. Chromogenic FXa substrate (S-2222), synthetic thrombin inhibitor (I-2581), bovine FIXa and bovine FX were reconstituted in sterile water and FIXa/FX mixed with phospholipids according to the supplier's protocol. […] Per reaction, 50 μl of the phospholipid/FIXa/FX solution were combined with 25 μl CaCl2 (25 mM) and 50 μl of the substrate/inhibitor cocktail. To start the reaction, 125 μl of the premix were added to the peptide solution in the microtiter plate and incubated at 37° C. Absorbance at 405 nm and 490 nm of the samples was read at various times (5 min to 2 h) against a reagent blank in a Labsystems iEMS Reader MF™ microtiter plate reader using GENESIS™ software.
# FVIII deficient plasma = assay: aPTT based one stage clotting assay in FVIII deficient plasma; assay type: biochemical, human; settings: for procoagulant activity: one-stage clotting assay in the presence of FIXa
# Method: During normal hemostasis, FIX becomes initially activated either by the tissue factor (TF)/factor VIIa pathway or later on by activated factor XI (FXIa). Subsequent to its activation, FIXa associates on the platelet surface in a membrane bound complex with activated FVIII. […] Different amounts of antibody 193/AD3 or mouse IgG (as a control) were used in a standard aPTT based one stage clotting assay. Briefly, 100 μl of antibody-containing samples were incubated with 100 μl of FVIII deficient plasma (DP) and with 100 μl of DAPTTIN (PTT Reagent for determining activated Thromboplastin Time; IMMUNO AG) reagent, in a KC10A clotting analyzer. Where indicated, a total amount of 50 ng activated FIX was included in the reaction mixture. After a 4 minute incubation, the reaction was started by the addition of 100 μl CaCl2 (25 mM).
# The peptides were also analyzed for their potential to reduce the clotting time in a FVIII deficient plasma. The aPTT based one stage clotting assay was essentially done as described (see example 6). Clotting times (time from starting the reaction to the “clot”-formation were compared either against FVIII, a buffer control (IZ) or a control peptide (scrambled version). The results of two typical clotting experiments done with two different aPTT reagents (DAPTTIN and Pathromtin SL) are shown in table 3A and table 3B.
# factor IXa = target: T2, factor IXa (Bos taurus, UniProt P00741); assay: Chromogenic FVIII assay (COATEST VIII:C/4) with the kit's FIXa/FX; assay type: biochemical, bovine
# T2 construct: purchased Chromogenix COATEST VIII:C/4
# T2 sequence (P00741 47-192 limits assumed): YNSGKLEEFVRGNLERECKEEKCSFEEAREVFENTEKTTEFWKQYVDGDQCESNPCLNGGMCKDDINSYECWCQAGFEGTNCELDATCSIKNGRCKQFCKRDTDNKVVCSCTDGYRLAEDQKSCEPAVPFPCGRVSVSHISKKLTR
# T2 sequence (P00741 228-462 limits assumed): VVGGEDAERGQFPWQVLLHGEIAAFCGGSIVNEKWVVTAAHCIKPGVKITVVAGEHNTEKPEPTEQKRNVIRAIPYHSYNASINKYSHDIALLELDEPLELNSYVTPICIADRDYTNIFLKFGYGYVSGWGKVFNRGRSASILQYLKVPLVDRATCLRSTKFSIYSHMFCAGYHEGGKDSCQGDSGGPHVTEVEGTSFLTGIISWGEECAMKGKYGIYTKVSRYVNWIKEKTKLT
# Method: In order to assay the FVIII-like activity of anti-FIXa antibodies secreted by hybridoma cells, the commercially available test-kit COATEST VIII:C/4® (Chromogenix) was employed. The assay was done essentially as described by the manufacturer with the following modifications:
# To allow high throughput screening, the assay was downscaled to microtiter plate format. Briefly, 25 μl aliquots of hybridoma supernatants were transferred to microtiter plate (Costar, #3598) wells and warmed to 37° C. Chromogenic substrate (S-2222), synthetic thrombin inhibitor (I-2581), factor (F) IXa and FX were reconstituted in sterile water and FIXa/FX was mixed with phospholipids according to the supplier's protocol. Per reaction, 50 μl of the phospholipid/FIXa/FX solution were combined with 25 μl CaCl2 (25 mM) and 50 μl of the substrate/inhibitor cocktail. To start the reaction, 125 μl of the premix were added to the hybridoma supernatant in the microtiter plates and incubated at 37° C. Absorbency at 405 nm and 490 nm of the samples was read at various times (30 min to 12 h) against a reagent blank (MLW, cell culture medium instead of hybridoma supernatant) in a Labsystems iEMS Reader MF™ microtiter plate reader. FVIII-like activity of the samples was calculated by comparing the absorbency of the samples against the absorbency of a diluted FVIII reference standard (IMMUNO AG #5T4AR00) using GENESIS™ software.
# Several anti-FIX/FIXa antibody producing hybridoma clones were subcloned up to four times and the resulting monoclonal hybridoma cell line used to produce monoclonal antibody containing supernatant. IgG isotype antibodies derived from these supernatants were purified over affinity columns and dialyzed against TBS (see above). IgM antibodies were used as unpurified supernatant fractions. […] Absorbance at 405 nm and 490 nm of the samples was read at various times (5 min to 6 h) against a reagent blank (cell culture medium instead of hybridoma supernatant) in a Labsystems iEMS Reader MF™ microtiter plate reader using GENESIS™ software. […]
# FVIII inhibitor plasma = assay: aPTT based one stage clotting assay in FVIII inhibitor plasma; assay type: biochemical; settings: inhibitor potency 400 BU/ml, 50 ng activated FIXa
# Method: […] […] […] After a 4 minute incubation, the reaction was started by the addition of 100 μl CaCl2 (25 mM). To ensure equal conditions, the experiments employing FVIII deficient plasma and FVIII inhibitor plasma were done side by side.
# To assay for the procoagulant activity of peptide A1/3 in FVIII inhibitor plasma the following experiment was carried out. We performed a standard aPTT based one stage clotting assay, but instead of FVIII deficient plasma we employed FVIII inhibitor plasma.
# [1] = 12.5 nM peptide, (+) presence of activated human FIX
# [2] = 12.5 nM peptide, (−) absence of activated human FIX
# [3] = 0.125 μM peptide, (+) presence of activated human FIX
# [4] = 0.125 μM peptide, (−) absence of activated human FIX
# [5] = 1.25 μM peptide, (+) presence of activated human FIX
# [6] = 1.25 μM peptide, (−) absence of activated human FIX
# [7] = 12.5 μM peptide, (+) presence of activated human FIX
# [8] = 12.5 μM peptide, (−) absence of activated human FIX
Molecule,clotting time (FVIII deficient plasma; [1]) [s],clotting time (FVIII deficient plasma; [2]) [s],clotting time (FVIII deficient plasma; [3]) [s],clotting time (FVIII deficient plasma; [4]) [s],clotting time (FVIII deficient plasma; [5]) [s],clotting time (FVIII deficient plasma; [6]) [s],clotting time (FVIII deficient plasma; [7]) [s],clotting time (FVIII deficient plasma; [8]) [s],procoagulant activity (FVIII deficient plasma),also measured
EEEEGGGFTVNWYFDEEE [B1/6],100,111,101,111,100,110,103,115,,FIXa activating activity in chromogenic assay (human FIXa; data not shown): no activity
RRREGGGFTVNWYFDRRR [B1/7],99,110,99,109,92,112,83,157,,"FIXa activating activity (generation of FXa) (human FIXa; 2.4 μM peptide, 2.3 nM human FIXa): well measurable generation of FXa; also recorded: measureable generation of Fxa; FXa generation without FIXa and FX (human FIXa; 2.4 μM peptide, w/o FIXa/FX): no FXa was synthesized; also recorded: no reaction is detectable"
B1,,,,,,,,,procoagulant,"clotting time (FVIII deficient plasma; 0.23 μg AB, 50 ng FIXa): 99.3 s; clotting time (FVIII deficient plasma; 0.34 μg AB, 50 ng FIXa): 97.1 s; clotting time (FVIII deficient plasma; 0.45 μg AB, 50 ng FIXa): 98.1 s; clotting time (FVIII deficient plasma; 0.9 μg AB, 50 ng FIXa): 94.4 s; clotting time (FVIII deficient plasma; 1.35 μg AB, 50 ng FIXa): 91.4 s; clotting time (FVIII deficient plasma; 1.8 μg AB, 50 ng FIXa): 93.7 s; clotting time (FVIII deficient plasma; 2.25 μg AB, 50 ng FIXa): 93.1 s; clotting time (FVIII deficient plasma; 4.5 μg AB, 50 ng FIXa): 95.6 s; clotting time (FVIII deficient plasma; 9 μg AB, 50 ng FIXa): 101.6 s; reduction of the clotting time (FVIII deficient plasma; various amounts of antibody, 50 ng activated FIX): clear dose-dependent reduction of the clotting time; also recorded: reduction in the coagulation time; time course of FVIII-like activity (chromogenic substrate cleavage, OD 405 nm) (factor IXa; purified IgG (198/AC1/1 10 μg/ml) or unpurified IgM supernatant): give rise to chromogenic substrate cleavage; also recorded: gave rise to chromogenic substrate cleavage; reduction of the clotting time (FVIII inhibitor plasma): clear dose-dependent reduction of the clotting time"
B2,,,,,,,,,show procoagulant activity,"chromogenic FVIII-like activity (FXa generation) without human FIXa (factor IXa; bovine FIXa and FX only, A1/3 24 μM): does not react with bovine FIXa and FX"
